This is an account of results in patent publication US4416883A, “Penicillin derivatives” (Beecham Group Limited, priority 1980, dated 1983).

What all share (format): cell-based
The subject of one assay is E. coli NCTC 10418. The experiment in a line: MIC against E. coli NCTC 10418. The following applies: Escherichia coli. The text has this: (§1) | MIC values (μg/ml) of the compounds of Example 4b against | a number of organisms important in human infections
A further assay has as its system Staph. aureus Russell. Description: MIC against Staph. aureus Russell. The following applies: Staphylococcus aureus, AGAR.
Text: as §1

The next assay has as its system Ps aeruginosa Dalgleish. Description: MIC against Ps aeruginosa Dalgleish. The following applies: AGAR; Ps aeruginosa Dalgleish 10^-2.
Text: as §1

The next assay relates to Enterobacter cloacae N1. Description: MIC against Enterobacter cloacae N1. The following applies: AGAR.
Text: as §1

The test system of another assay is P. mirabilis C977. Description: MIC against P. mirabilis C977. The following applies: Proteus mirabilis, AGAR.
Text: as §1

The subject of the next assay is P. rettgeri. The experiment in a line: MIC against P. rettgeri. The following applies: Providencia rettgeri, AGAR.
Text: as §1

The next assay relates to Ps aeruginosa 10662. The experiment in a line: MIC against Ps aeruginosa 10662.
Text: as §1

For a further assay, the system named is Klebsiella aerogenes A. Description: MIC against Klebsiella aerogenes A.
Text: as §1

The subject of a further assay is Serratia marcescens US32. Description: MIC against Serratia marcescens US32. The following applies: AGAR.
Text: as §1

Another assay concerns Staph. aureus Oxford. The experiment in a line: MIC against Staph. aureus Oxford. The following applies: Staphylococcus aureus.
Text: as §1

The next assay relates to E. coli JT4. The experiment in a line: MIC against E. coli JT4. The following applies: Escherichia coli, AGAR.
Text: as §1

In a further assay the test system is P. mirabilis 889. Description: MIC against P. mirabilis 889. The following applies: Proteus mirabilis, AGAR.
Text: as §1

A further assay relates to B. subtilis. Description: MIC against B. subtilis. To be noted: Bacillus subtilis, AGAR.
Text: as §1

The subject of another assay is P. morganii. Description: MIC against P. morganii. To be noted: Morganella morganii, AGAR.
Text: as §1

A further assay relates to E. coli JT425. The experiment in a line: MIC against E. coli JT425. The following applies: Escherichia coli, AGAR.
Text: as §1

The subject of the next assay is β-Haemolytic Strep. CN10. The experiment in a line: MIC against β-Haemolytic Strep. CN10. To be noted: AGAR.
Text: as §1

Another assay deals with S. faecalis I. Description: MIC against S. faecalis I. The following applies: Enterococcus faecalis, AGAR.
Text: as §1

Turning to `CCN1CCN(C(=O)N[C@@H](C(=O)N[C@@H]2C(=O)N3[C@@H](C(=O)O)CS[C@H]23)c2ccccc2)C(=O)C1=O` [Example 4b, Sodium 6β[D,2(4-ethyl-2,3-dioxopiperazine-1-carbonylamino)]phenylacetamidobisnorpenicillanate], the MIC (commonly the smallest concentration in the dilution series that meets the test's criterion for growth inhibition) against E. coli NCTC 10418 (NCTC10418, AGAR) was 1 µg/mL; against E. coli NCTC 10418 (NCTC10418, BROTH), 0.5 µg/mL; against Staph. aureus Russell it was more than 100 µg/mL; in the assay on Ps aeruginosa Dalgleish it was more than 100 µg/mL; with Enterobacter cloacae N1, 0.5 µg/mL; in the assay with P. mirabilis C977, 0.1 µg/mL. Further, the MIC in the assay on P. rettgeri was 0.5 µg/mL; with Ps aeruginosa 10662 (AGAR, Ps aeruginosa 10662), 10 µg/mL; against Ps aeruginosa 10662 (AGAR, Ps aeruginosa 10662 10^-2) it was 5 µg/mL; against Ps aeruginosa 10662 (BROTH, Ps aeruginosa 10662) it was 10 µg/mL; with Ps aeruginosa 10662 (BROTH, Ps aeruginosa 10662 10^-2), 5 µg/mL; in the assay with Klebsiella aerogenes A (AGAR), 0.2 µg/mL. Also, the MIC in the assay with Klebsiella aerogenes A (BROTH) was more than 10 µg/mL; in the assay with Serratia marcescens US32, 0.5 µg/mL; against Staph. aureus Oxford (AGAR) it was 1 µg/mL; against Staph. aureus Oxford (BROTH), 0.5 µg/mL; with E. coli JT4 it was more than 100 µg/mL; against P. mirabilis 889, more than 100 µg/mL. In addition, the MIC came out at 5 µg/mL in the assay on B. subtilis; 0.2 µg/mL against P. morganii; 10 µg/mL against E. coli JT425; 0.2 µg/mL in the assay on β-Haemolytic Strep. CN10; 50 µg/mL against S. faecalis I.
